Test system: mice NK cell
Assay: Mice NK cell activity in vivo (i.p. dosing 20 days, spleen effector cells vs YAC-1 target cells, MTT)
Design: species or system BALB/c mice
Settings: for NK cell activity (%): Table 8, saline 76.0 ± 4.3
Protocol: Animals were randomized into two peptide groups (200 μg/kg/day and 50 μg/kg/day), Cyclosporine A group (10 mg/kg/day), and saline group (0.5 ml/day). Each group contained 10 mice, in which half were female and half were male. All test substances were dissolved in 0.5 ml saline and administered intraperitoneally once per day for 20 days. T-lymphocyte transformation and NK cell activity were examined on the day immediately following the last injection. YAC-1 target cells were brought to log phase and adjusted to a density of 1×10^5/ml. Mice spleen cells prepared in section 2.2.2 above were adjusted to a density of 4×10^6/ml and used as effector cells. The cell suspensions were inoculated onto 96 wells cell culture plates as follows: Effector cell wells: 100 μl spleen cell suspension+100 μl RPMI-1640 Assay wells: 100 μl spleen cell suspension+100 μl YAC-1 cell suspension Target cell wells: 100 μl YAC-1 cell suspension+100 μl RPMI-1640 Three assay wells and three effector cell wells were set up for each animal, and 12 target cell wells were set up per cell culture plate. The plates were incubated at 37° C., 5% CO2 for 4 hours, then MTT was added and the plates were read at OD 570 nm referenced at 630 nm with ELISA reader. NK cell activity (%)=1−[(assay wells OD−effector cell wells OD)/target cell wells OD]×100%

PLNPK [CMS-010.26]
NK cell activity (%) (50 μg/kg/day i.p. 20 days): 68.5 ± 7.2 %
NK cell activity (%) (200 μg/kg/day i.p. 20 days): 67.7 ± 5.3 %
Effect on mice NK cell activity in vivo (suppression) (at suitable dosage, vs saline control P<0.05): suppress

Reference: patent US7718764B2, “Biologically active peptide [sequence] derivatives” (CMS Peptides Patent Holding Company Limited, priority 2004, dated 2010)
